Consider 8 compounds from patent US12653815B2, “Luminally-acting N-(piperidin-4-yl)benzamide derivatives” (Takeda Pharmaceutical Company Limited, priority 2020, dated 2026).

T1 sequence (Q13639 whole entry): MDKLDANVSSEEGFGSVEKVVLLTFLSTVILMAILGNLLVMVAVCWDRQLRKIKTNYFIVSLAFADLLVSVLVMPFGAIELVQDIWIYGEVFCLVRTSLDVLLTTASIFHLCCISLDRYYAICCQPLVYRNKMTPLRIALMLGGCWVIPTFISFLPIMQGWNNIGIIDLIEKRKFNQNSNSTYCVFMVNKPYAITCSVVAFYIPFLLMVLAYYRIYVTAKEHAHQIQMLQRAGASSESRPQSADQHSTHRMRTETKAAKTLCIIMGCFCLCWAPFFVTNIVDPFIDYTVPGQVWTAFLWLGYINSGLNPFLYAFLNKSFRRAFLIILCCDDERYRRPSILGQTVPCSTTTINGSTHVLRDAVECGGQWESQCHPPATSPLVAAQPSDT

This assay has as its target T1, human 5-HT4(b) receptor (Homo sapiens, UniProt Q13639).
T1 construct: overexpressing the full-length human 5-HT4(b) receptor with an N-terminal FLAG tag; FLAG (N); host or cells: CHO-K1
As to the kind of experiment: 5-HT4(b) agonist assay (cAMP accumulation). The format is cell-based. Particulars: CHO-K1 cells overexpressing full-length human 5-HT4(b) receptor; cAMP accumulation after 30 minutes at room temperature; 1 μM 5-HT as 100% activity. The method, then:
One may determine the activity of the compounds of Formula 1 using a variety of methods, including in vitro and in vivo methods. The ability of the example compounds to activate the 5-HT4(b) receptor may be determined using the following assay.
Chinese hamster ovary (CHO-K1) cells overexpressing the full-length human 5-HT4(b) receptor with an N-terminal FLAG tag (Multispan Inc, Hayward, CA) are cultured per the manufacturer's protocol in 1:1 DMEM/F12 (Thermo Fisher, Waltham, MA) with 10% fetal bovine serum (GE Healthcare, Pittsburgh, PA) and 10 μg/mL puromycin (Thermo Fisher, Waltham, MA), and stored in frozen aliquots to be used as assay ready cells. On the day of the assay, cells are removed from frozen storage, washed two times in 1× Kreb's Ringer Buffer (Zenbio, Research Triangle Park, NC), and re-suspended to a concentration of 4×10^6 cells/mL in 1× Kreb's Ringer Buffer. Test compound (50 nL) in 100% DMSO is acoustically dispensed in low volume, white, 384-well polypropylene plates (Corning, Tewksbury, MA), followed by the addition of 4×10^4 cells per well in a total volume of 10 μL. Cells are incubated with test compound for 30 minutes at room temperature in the dark, and cAMP accumulation is measured using the Cisbio HiRange cAMP assay kit (Bedford, MA) per the manufacturer's protocol. Anti-cAMP antibody and d2-cAMP tracer reagents diluted in lysis/detection buffer are incubated in the dark for 1 hour, and results are measured on a Pherastar plate reader (BMG Labtech, Ortenberg, Germany). Data are normalized using 1 μM 5-HT (Sigma Aldrich, St. Louis, MO) as 100% activity, and DMSO alone as 0% activity.
The ability of the example compounds to activate the 5-HT4(b) receptor was evaluated using the assay described in the Biological Activity section. Table 1, below, lists EC50 from the 5-HT4(b) agonist assay for each of the example compounds, where smaller EC50 values represent higher potency.
In general terms: cAMP levels reflect the balance of adenylyl cyclase and phosphodiesterase activity.
Regarding `COc1cc(N)c(Cl)cc1C(=O)N[C@@H]1CCN(CCCCCC(=O)NC[C@H](O)[C@@H](O)[C@H](O)[C@H](O)CO)C[C@@H]1OC` [Example 1, 4-amino-5-chloro-2-methoxy-N-((3S,4R)-3-methoxy-1-(6-oxo-6-(((2S,3R,4R,5R)-2,3,4,5,6-pentahydroxyhexyl)amino)hexyl)piperidin-4-yl)benzamide], the EC50 – broadly, the concentration giving half of the maximal effect – was 19.8 nM. This lies in the double-digit nanomolar range.
The compound `COc1cc(N)c(Cl)cc1C(=O)N[C@@H]1CCN(CCCCCC(=O)NCCCCCCCC(=O)NC[C@H](O)[C@@H](O)[C@H](O)[C@H](O)CO)C[C@@H]1OC` [Example 2, 4-amino-5-chloro-2-methoxy-N-((3S,4R)-3-methoxy-1-(6-oxo-6-((8-oxo-8-(((2S,3R,4R,5R)-2,3,4,5,6-pentahydroxyhexyl)amino)octyl)amino)hexyl)piperidin-4-yl)benzamide] had an EC50 of 21.4 nM. The EC50 values of the last two compounds are within 1.5-fold of each other.
Regarding `COc1cc(N)c(Cl)cc1C(=O)N[C@@H]1CCN(CCCCCC(=O)NCCCCCC(=O)NC[C@H](O)[C@@H](O)[C@H](O)[C@H](O)CO)C[C@@H]1OC` [Example 3, 4-amino-5-chloro-2-methoxy-N-((3S,4R)-3-methoxy-1-(6-oxo-6-((6-oxo-6-(((2S,3R,4R,5R)-2,3,4,5,6-pentahydroxyhexyl)amino)hexyl)amino)hexyl)piperidinyl)benzamide], the EC50 was 22.3 nM.
Turning to `COc1cc(N)c(Cl)cc1C(=O)N[C@@H]1CCN(CCCCCC(=O)NCCCC(=O)NC[C@H](O)[C@@H](O)[C@H](O)[C@H](O)CO)C[C@@H]1OC` [Example 4, 4-amino-5-chloro-2-methoxy-N-((3S,4R)-3-methoxy-1-(6-oxo-6-((4-oxo-4-(((2S,3R,4R,5R)-2,3,4,5,6-pentahydroxyhexyl)amino)butyl)amino)hexyl)piperidin-4-yl)benzamide], the EC50 is 28.6 nM. The EC50 values of the last two compounds are within 1.5-fold of each other.
In the case of `COc1cc(N)c(Cl)cc1C(=O)N[C@@H]1CCN(CCCCCC(=O)NCC(=O)NC[C@H](O)[C@@H](O)[C@H](O)[C@H](O)CO)C[C@@H]1OC` [Example 5, 4-amino-5-chloro-2-methoxy-N-((3S,4R)-3-methoxy-1-(6-oxo-6-((2-oxo-2-(((2S,3R,4R,5R)-2,3,4,5,6-pentahydroxyhexyl)amino)ethyl)amino)hexyl)piperidin-4-yl)benzamide], the EC50 was found to be 13.2 nM.
`COc1cc(N)c(Cl)cc1C(=O)N[C@@H]1CCN(CCCCCC(=O)NCCOCCOCCOCCC(=O)NC[C@H](O)[C@@H](O)[C@H](O)[C@H](O)CO)C[C@@H]1OC` [Example 6, 4-amino-5-chloro-2-methoxy-N-((3S,4R)-3-methoxy-1-((22S,23R,24R,25R)-22,23,24,25,26-pentahydroxy-6,19-dioxo-10,13,16-trioxa-7,20-diazahexacosyl)piperidin-4-yl)benzamide] showed an EC50 of 22.2 nM.
With `COc1cc(N)c(Cl)cc1C(=O)N[C@@H]1CCN(CCCCCC(=O)NCCOCCOCCC(=O)NC[C@H](O)[C@@H](O)[C@H](O)[C@H](O)CO)C[C@@H]1OC` [Example 7, 4-amino-5-chloro-2-methoxy-N-((3S,4R)-3-methoxy-1-((19S,20R,21R,22R)-19,20,21,22,23-pentahydroxy-6,16-dioxo-10,13-dioxa-7,17-diazatricosyl)piperidin-4-yl)benzamide] the figure was 23.4 nM.
On to `COc1cc(N)c(Cl)cc1C(=O)N[C@@H]1CCN(CCCCCC(=O)NC2CCN(CCCCCCCC(=O)NC[C@H](O)[C@@H](O)[C@H](O)[C@H](O)CO)CC2)C[C@@H]1OC` [Example 8, 4-amino-5-chloro-2-methoxy-N-((3S,4R)-3-methoxy-1-(6-oxo-6-((1-(8-oxo-8-(((2S,3R,4R,5R)-2,3,4,5,6-pentahydroxyhexyl)amino)octyl)piperidin-4-yl)amino)hexyl)piperidin-4-yl)benzamide], for which the EC50 was found to be 9.6 nM.
